Reference: ChEMBL document CHEMBL1157293, “Sylviside, a diterpene glucoside derivative from Gnaphalium sylvaticum” (J Nat Prod, 2006)

What was measured:
HeLa [1] = assay: Cytotoxicity against MDR1-G185 overexpressing human HeLa cells by MTT assay; type: functional, cell-based
HeLa [2] = assay: Cytotoxicity against wild type human HeLa cells by MTT assay; type: functional, cell-based

Work on `C=C1[C@@H]2CC[C@H]3[C@]4(C)C[C@H](O[C@@H]5O[C@H](CO)[C@@H](O)[C@H](O)[C@H]5OC(=O)/C(C)=C\C)CC(C(=O)O)(C(=O)O)[C@H]4CC[C@]3(C2)[C@H]1O` [SYLVISIDE] yielded an IC50 (HeLa [1]) of 1.7 mM and an IC50 (HeLa [2]) of 325 µM.
